In patent publication US20050209278A1, “Piperidinyl- and piperazinyl-sulfonylmethyl hydroxamic acids and their use as protease inhibitors” (priority 2002, published 2005):

Biological target: T1, MMP-1 (Homo sapiens, UniProt P03956)
T1 construct: made in house; host or cells: MMP-1-transfected HT-1080 cells (spent media)
T1 sequence (P03956 100-469): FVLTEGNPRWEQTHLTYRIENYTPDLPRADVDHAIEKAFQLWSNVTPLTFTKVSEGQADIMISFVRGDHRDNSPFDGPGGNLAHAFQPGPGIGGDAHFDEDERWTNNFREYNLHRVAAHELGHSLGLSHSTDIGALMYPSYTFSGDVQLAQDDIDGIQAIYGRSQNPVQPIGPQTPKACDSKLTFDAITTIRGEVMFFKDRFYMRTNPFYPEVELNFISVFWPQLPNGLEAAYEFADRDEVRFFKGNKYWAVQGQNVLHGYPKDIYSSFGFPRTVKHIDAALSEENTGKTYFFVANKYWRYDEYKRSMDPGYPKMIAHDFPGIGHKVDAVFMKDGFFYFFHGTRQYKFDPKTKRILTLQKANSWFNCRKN
Assay: In vitro MMP inhibition, Ki determination (fluorogenic substrate II)
Assay type: biochemical
Details: value outside parentheses; read-out: MMP-1 Ki

Ki	Structure (SMILES)
3.43 µM	O=C(NO)C1(S(=O)(=O)N2CCC(c3ccc(-c4ccccc4)cn3)CC2)CCOCC1 [Example 392]
2.75 µM	O=C(NO)C1(S(=O)(=O)N2CCC(c3ccc(-c4cccs4)cn3)CC2)CCOCC1 [Example 394]
> 10 µM	O=C(NO)C1(S(=O)(=O)N2CCC(c3ccc(-c4ccc(C(F)(F)F)cc4)cn3)CC2)CCOCC1 [Example 395]
> 10 µM	CCCCc1ccc(C2CCN(S(=O)(=O)C3(C(=O)NO)CCN(CC)CC3)CC2)nc1 [Example 396]

Second part, the compound before the results:

Structure (SMILES)	Ki
O=C(NO)C1(S(=O)(=O)N2CCN(c3ncc(-c4ccccn4)s3)CC2)CCOCC1 [Example 387]	> 10 µM
CCCCc1ccc(C2CCN(S(=O)(=O)C3(C(=O)NO)CCNCC3)CC2)nc1 [Example 388]	> 10 µM
O=C(NO)C1(S(=O)(=O)N2CCN(c3ccc(CCCC(F)(F)F)c(F)c3)CC2)CCOCC1 [Example 389]	> 10 µM
O=C(NO)C1(S(=O)(=O)N2CCC(c3ccc(-c4cccnc4)cn3)CC2)CCOCC1 [Example 390]	7.88 µM
